Results from publication doi:10.1101/2022.02.23.481604v2 (biorxiv, 2022).
Structures can show the parent of a compound that is named as a salt.

Columns and labels:
Test in all cases: cAMP formation in membranes
mAC7 = target: T1, mAC7 (Homo sapiens, UniProt P51828); assay type: biochemical
T1 sequence (P51828 1-1080): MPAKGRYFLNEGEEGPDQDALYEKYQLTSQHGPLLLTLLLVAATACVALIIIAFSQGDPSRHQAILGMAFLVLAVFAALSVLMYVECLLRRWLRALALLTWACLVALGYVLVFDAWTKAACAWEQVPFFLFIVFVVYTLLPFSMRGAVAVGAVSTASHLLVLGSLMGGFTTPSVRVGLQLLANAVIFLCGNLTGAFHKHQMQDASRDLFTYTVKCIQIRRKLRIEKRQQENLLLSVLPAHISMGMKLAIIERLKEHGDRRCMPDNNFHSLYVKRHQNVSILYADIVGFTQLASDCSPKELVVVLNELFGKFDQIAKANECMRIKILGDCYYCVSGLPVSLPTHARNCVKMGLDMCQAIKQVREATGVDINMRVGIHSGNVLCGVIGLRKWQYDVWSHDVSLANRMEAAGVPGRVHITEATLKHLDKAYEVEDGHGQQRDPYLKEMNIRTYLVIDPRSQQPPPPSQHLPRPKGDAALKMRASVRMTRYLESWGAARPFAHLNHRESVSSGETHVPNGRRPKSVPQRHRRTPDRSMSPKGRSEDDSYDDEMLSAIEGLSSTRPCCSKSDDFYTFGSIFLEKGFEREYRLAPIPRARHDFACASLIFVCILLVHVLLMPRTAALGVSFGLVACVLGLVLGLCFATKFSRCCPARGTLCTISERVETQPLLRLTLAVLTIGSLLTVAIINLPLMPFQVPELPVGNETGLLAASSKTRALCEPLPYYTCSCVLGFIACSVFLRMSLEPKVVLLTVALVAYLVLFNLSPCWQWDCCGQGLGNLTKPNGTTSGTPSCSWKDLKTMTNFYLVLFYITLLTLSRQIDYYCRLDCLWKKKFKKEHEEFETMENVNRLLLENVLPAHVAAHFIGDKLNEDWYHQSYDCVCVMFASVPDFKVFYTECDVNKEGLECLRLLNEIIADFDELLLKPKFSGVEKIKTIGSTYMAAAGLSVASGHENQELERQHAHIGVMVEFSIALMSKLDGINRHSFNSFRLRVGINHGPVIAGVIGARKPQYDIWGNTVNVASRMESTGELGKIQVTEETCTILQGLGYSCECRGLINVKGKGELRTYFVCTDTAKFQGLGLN

mAC1 = mAC1 (Homo sapiens, UniProt Q08828); assay type: biochemical
Chain of mAC1 (Q08828 whole entry): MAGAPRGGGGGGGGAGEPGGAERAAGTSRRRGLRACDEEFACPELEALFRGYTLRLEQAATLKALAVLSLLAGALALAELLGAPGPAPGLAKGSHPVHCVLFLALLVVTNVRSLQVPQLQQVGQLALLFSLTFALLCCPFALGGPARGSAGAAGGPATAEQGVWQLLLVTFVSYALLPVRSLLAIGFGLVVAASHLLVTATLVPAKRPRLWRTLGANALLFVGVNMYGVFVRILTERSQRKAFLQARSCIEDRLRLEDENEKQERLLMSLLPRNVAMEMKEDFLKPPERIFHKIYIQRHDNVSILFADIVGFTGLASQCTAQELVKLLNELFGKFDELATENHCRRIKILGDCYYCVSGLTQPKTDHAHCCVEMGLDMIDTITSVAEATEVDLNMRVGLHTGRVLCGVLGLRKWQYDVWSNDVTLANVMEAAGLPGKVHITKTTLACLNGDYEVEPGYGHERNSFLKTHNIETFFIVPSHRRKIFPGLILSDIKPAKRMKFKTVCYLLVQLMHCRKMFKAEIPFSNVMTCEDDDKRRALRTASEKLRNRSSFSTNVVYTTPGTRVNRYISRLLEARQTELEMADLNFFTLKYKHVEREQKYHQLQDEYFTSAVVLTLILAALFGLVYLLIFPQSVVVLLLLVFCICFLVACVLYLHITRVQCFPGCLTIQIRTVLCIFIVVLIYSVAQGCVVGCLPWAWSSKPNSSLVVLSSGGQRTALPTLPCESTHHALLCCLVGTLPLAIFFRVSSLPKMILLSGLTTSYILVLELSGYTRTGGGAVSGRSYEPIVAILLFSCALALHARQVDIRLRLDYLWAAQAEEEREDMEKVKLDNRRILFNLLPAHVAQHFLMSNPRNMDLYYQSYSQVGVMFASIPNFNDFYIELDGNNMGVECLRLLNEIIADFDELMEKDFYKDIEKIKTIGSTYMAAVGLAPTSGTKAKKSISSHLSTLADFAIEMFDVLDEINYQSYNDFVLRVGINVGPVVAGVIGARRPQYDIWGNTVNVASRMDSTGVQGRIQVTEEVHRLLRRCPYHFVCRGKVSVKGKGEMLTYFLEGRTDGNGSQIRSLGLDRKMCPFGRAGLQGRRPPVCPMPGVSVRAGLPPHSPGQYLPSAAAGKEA

[1] = target: mAC3 activated by Gsα (Q227L) (Homo sapiens, UniProt O60266); assay type: biochemical
Chain of mAC3 activated by Gsα (Q227L) (P63092 2-394 Q227L partner, one chain of several): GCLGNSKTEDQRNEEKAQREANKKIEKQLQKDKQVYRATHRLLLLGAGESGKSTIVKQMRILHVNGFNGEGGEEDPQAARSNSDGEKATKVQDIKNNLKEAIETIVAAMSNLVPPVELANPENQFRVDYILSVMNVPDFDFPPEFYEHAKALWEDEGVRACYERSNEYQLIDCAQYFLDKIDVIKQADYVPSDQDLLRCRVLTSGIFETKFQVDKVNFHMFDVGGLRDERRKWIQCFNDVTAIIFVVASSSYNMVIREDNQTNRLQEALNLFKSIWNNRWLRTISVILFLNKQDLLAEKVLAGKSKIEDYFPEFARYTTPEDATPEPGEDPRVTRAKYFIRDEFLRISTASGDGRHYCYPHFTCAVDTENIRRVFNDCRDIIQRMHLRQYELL

[2] = target: mAC9 activated by Gsα (Q227L) (Homo sapiens, UniProt O60503); assay type: biochemical
Chain of mAC9 activated by Gsα (Q227L) (O60503 whole entry, stated change not applied): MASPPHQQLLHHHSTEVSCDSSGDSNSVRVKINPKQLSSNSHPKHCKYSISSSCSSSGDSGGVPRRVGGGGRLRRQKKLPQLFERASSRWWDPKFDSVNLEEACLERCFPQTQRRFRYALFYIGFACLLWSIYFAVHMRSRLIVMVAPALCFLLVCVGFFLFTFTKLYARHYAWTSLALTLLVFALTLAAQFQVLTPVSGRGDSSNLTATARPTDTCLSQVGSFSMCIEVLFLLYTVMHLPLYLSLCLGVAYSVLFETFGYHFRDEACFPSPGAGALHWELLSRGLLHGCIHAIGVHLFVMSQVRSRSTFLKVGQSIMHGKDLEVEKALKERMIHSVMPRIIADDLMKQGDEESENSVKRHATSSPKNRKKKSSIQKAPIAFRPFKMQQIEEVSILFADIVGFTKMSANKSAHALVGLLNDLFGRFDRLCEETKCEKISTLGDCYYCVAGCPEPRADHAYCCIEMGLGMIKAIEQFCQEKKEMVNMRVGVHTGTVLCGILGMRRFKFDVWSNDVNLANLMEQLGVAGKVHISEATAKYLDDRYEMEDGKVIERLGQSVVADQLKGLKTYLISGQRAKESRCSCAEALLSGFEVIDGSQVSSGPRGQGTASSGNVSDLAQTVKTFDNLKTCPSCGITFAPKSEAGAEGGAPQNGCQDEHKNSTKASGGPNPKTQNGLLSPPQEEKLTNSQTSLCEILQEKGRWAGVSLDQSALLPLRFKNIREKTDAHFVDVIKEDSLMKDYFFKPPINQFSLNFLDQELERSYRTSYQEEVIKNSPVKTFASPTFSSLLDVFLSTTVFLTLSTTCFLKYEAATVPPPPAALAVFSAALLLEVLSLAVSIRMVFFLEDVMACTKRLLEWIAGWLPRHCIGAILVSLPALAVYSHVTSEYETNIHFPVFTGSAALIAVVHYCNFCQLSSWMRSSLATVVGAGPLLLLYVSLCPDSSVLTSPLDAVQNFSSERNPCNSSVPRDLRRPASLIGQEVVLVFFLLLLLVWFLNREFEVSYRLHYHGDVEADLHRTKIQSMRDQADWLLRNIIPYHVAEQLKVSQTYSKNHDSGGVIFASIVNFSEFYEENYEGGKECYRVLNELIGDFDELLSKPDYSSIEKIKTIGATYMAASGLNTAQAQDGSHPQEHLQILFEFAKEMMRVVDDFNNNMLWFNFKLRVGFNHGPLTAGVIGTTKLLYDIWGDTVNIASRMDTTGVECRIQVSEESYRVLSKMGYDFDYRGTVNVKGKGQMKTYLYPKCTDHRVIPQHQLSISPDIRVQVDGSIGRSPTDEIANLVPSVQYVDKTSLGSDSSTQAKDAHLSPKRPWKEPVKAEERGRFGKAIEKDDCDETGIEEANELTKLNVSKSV
Chain of mAC9 activated by Gsα (Q227L) (P63092 2-394 Q227L partner): as the sequence (P63092 2-394 Q227L partner, one chain of several) above

[3] = target: mAC6 activated by Gsα (Q227L) (Homo sapiens, UniProt O43306); assay type: biochemical
Chain of mAC6 activated by Gsα (Q227L) (O43306 whole entry, stated change not applied): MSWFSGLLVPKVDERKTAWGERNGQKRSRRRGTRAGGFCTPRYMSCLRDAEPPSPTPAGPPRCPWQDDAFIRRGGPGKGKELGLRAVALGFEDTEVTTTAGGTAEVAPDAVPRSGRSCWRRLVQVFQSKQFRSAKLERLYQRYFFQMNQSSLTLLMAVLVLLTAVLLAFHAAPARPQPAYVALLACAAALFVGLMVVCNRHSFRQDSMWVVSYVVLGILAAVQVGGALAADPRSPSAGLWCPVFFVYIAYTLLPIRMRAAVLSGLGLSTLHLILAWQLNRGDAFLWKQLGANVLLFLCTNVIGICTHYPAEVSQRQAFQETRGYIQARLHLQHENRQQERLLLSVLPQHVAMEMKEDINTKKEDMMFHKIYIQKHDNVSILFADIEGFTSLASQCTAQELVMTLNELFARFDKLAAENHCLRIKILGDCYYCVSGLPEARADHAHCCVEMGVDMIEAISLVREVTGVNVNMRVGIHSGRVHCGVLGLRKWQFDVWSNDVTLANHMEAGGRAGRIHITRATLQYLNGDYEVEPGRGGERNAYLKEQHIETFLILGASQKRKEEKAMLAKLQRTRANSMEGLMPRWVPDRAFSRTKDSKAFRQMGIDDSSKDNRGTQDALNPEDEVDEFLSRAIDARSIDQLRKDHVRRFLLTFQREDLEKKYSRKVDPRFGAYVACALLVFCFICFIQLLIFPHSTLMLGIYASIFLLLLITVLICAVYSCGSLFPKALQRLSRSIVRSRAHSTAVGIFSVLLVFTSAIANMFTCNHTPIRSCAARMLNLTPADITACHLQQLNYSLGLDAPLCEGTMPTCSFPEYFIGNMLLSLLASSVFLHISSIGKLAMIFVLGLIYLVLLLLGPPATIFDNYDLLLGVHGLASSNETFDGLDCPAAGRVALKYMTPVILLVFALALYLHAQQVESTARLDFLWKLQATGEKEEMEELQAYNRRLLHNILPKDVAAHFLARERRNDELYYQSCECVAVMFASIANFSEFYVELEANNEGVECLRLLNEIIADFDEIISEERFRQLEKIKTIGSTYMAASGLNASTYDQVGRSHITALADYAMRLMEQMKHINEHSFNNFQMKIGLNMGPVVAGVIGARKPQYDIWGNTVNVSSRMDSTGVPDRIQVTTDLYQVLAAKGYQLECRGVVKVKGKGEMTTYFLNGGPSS
Chain of mAC6 activated by Gsα (Q227L) (P63092 2-394 Q227L partner): as the sequence (P63092 2-394 Q227L partner, one chain of several) above

[4] = target: mAC7 activated by Gsα (Q227L) (Homo sapiens, UniProt P51828); assay type: biochemical
Chain of mAC7 activated by Gsα (Q227L) (P63092 2-394 Q227L partner, one chain of several): as above

[5] = substrate: Nc1ncnc2c1ncn2[C@@H]1O[C@H](COP(=O)(O)OP(=O)(O)OP(=O)(O)O)[C@@H](O)[C@H]1O; assay type: biochemical, Homo sapiens; settings: without SDPA, Gsα presence inferred from Vmax, Mg2+, pH 7.5

C=C[C@@]1(C)CC(=O)[C@]2(O)[C@@]3(C)[C@@H](O)CCC(C)(C)[C@@H]3[C@H](O)[C@H](OC(C)=O)[C@@]2(C)O1 [forskolin]
EC50 (mAC7): 512 µM
EC50 (mAC1): 2000 nM

CC/C=C\C/C=C\C/C=C\C/C=C\C/C=C\C/C=C\CCC(=O)O[C@H](COC(=O)CCCCCCCCCCCCCCCCC)COP(=O)(O)OC[C@H](N)C(=O)O [SDPS, 1-stearoyl-2-docosahexaenoyl-sn-glycero-3-phospho-L-serine]
EC50 [1]: 1200 nM

CC/C=C\C/C=C\C/C=C\C/C=C\C/C=C\C/C=C\CCC(=O)O[C@H](COC(=O)CCCCCCCCCCCCCCCCC)COP(=O)(O)O [SDPA, 1-stearoyl-2-docosahexaenoyl-sn-glycero-3-phosphate (sodium salt)]
EC50 [2]: 700 nM
EC50 [1]: 900 nM
EC50 [3]: 700 nM
EC50 [4]: 700 nM

CC/C=C\C/C=C\C/C=C\C/C=C\C/C=C\C/C=C\CCC(=O)OC[C@H](COP(=O)(O)O)OC(=O)CC/C=C\C/C=C\C/C=C\C/C=C\C/C=C\C/C=C\CC [DDPA, 1,2-didocosahexaenoyl-sn-glycero-3-phosphate (sodium salt)]
EC50 [1]: 1400 nM

CC/C=C\C/C=C\C/C=C\C/C=C\C/C=C\C/C=C\CCC(=O)O[C@H](COC(=O)CCCCCCCCCCCCCCC)COP(=O)(O)O [PDPA, 1-palmitoyl-2-docosahexaenoyl-sn-glycero-3-phosphate (sodium salt)]
EC50 [1]: 1300 nM

CCCCC/C=C\C/C=C\C/C=C\C/C=C\CCCC(=O)O[C@H](COC(=O)CCCCCCCCCCCCCCCCC)COP(=O)(O)O [SAPA, 1-stearoyl-2-arachidonoyl-sn-glycero-3-phosphate (sodium salt)]
EC50 [1]: 4800 nM

B1: mAC3 activated by Gsα (Q227L) (Homo sapiens) (protein)
chain: MPRNQGFSEPEYSAEYSAEYSVSLPSDPDRGVGRTHEISVRNSGSCLCLPRFMRLTFVPESLENLYQTYFKRQRHETLLVLVVFAALFDCYVVVMCAVVFSSDKLASLAVAGIGLVLDIILFVLCKKGLLPDRVTRRVLPYVLWLLITAQIFSYLGLNFARAHAASDTVGWQVFFVFSFFITLPLSLSPIVIISVVSCVVHTLVLGVTVAQQQQEELKGMQLLREILANVFLYLCAIAVGIMSYYMADRKHRKAFLEARQSLEVKMNLEEQSQQQENLMLSILPKHVADEMLKDMKKDESQKDQQQFNTMYMYRHENVSILFADIVGFTQLSSACSAQELVKLLNELFARFDKLAAKYHQLRIKILGDCYYCICGLPDYREDHAVCSILMGLAMVEAISYVREKTKTGVDMRVGVHTGTVLGGVLGQKRWQYDVWSTDVTVANKMEAGGIPGRVHISQSTMDCLKGEFDVEPGDGGSRCDYLEEKGIETYLIIASKPEVKKTATQNGLNGSALPNGAPASSKSSSPALIETKEPNGSAHSSGSTSEKPEEQDAQADNPSFPNPRRRLRLQDLADRVVDASEDEHELNQLLNEALLERESAQVVKKRNTFLLSMRFMDPEMETRYSVEKEKQSGAAFSCSCVVLLCTALVEILIDPWLMTNYVTFMVGEILLLILTICSLAAIFPRAFPKKLVAFSTWIDRTRWARNTWAMLAIFILVMANVVDMLSCLQYYTGPSNATAGMETEGSCLENPKYYNYVAVLSLIATIMLVQVSHMVKLTLMLLVAGAVATINLYAWRPVFDEYDHKRFREHDLPMVALEQMQGFNPGLNGTDRLPLVPSKYSMTVMVFLMMLSFYYFSRHVEKLARTLFLWKIEVHDQKERVYEMRRWNEALVTNMLPEHVARHFLGSKKRDEELYSQTYDEIGVMFASLPNFADFYTEESINNGGIECLRFLNEIISDFDSLLDNPKFRVITKIKTIGSTYMAASGVTPDVNTNGFASSNKEDKSERERWQHLADLADFALAMKDTLTNINNQSFNNFMLRIGMNKGGVLAGVIGARKPHYDIWGNTVNVASRMESTGVMGNIQVVEETQVILREYGFRFVRRGPIFVKGKGELLTFFLKGRDKLATFPNGPSVTLPHQVVDNS
Km [5]: 0.1 mM
